ChEMBL document CHEMBL1157938, “Cytotoxicity and inhibition of DNA topoisomerase I of polyhydroxylated triterpenoids and triterpenoid glycosides” (Bioorg Med Chem Lett, 2010)
The source made the active and inactive calls. The rule behind the calls is not given here.

What was measured:
PANC-1 = experiment: Cytotoxicity against human PANC1 cells after 48 hrs by WST8 assay; assay type: functional; conditions: PANC-1, 48 h
[1] = Cytotoxicity against human MRC5 cells after 48 hrs by WST8 assay; assay type: cell-based
[2] = molecular target: DNA topoisomerase 2-alpha (Homo sapiens, UniProt P11388); experiment: Inhibition of human DNA topoisomerase 2-mediated relaxation of supercoiled DNA by gel electrophoresis
[3] = molecular target: T1, DNA topoisomerase 1 (Homo sapiens) (UniProt P11387); experiment: Inhibition of human DNA topoisomerase 1-mediated relaxation of supercoiled DNA at 63 uM
T1 sequence (whole entry): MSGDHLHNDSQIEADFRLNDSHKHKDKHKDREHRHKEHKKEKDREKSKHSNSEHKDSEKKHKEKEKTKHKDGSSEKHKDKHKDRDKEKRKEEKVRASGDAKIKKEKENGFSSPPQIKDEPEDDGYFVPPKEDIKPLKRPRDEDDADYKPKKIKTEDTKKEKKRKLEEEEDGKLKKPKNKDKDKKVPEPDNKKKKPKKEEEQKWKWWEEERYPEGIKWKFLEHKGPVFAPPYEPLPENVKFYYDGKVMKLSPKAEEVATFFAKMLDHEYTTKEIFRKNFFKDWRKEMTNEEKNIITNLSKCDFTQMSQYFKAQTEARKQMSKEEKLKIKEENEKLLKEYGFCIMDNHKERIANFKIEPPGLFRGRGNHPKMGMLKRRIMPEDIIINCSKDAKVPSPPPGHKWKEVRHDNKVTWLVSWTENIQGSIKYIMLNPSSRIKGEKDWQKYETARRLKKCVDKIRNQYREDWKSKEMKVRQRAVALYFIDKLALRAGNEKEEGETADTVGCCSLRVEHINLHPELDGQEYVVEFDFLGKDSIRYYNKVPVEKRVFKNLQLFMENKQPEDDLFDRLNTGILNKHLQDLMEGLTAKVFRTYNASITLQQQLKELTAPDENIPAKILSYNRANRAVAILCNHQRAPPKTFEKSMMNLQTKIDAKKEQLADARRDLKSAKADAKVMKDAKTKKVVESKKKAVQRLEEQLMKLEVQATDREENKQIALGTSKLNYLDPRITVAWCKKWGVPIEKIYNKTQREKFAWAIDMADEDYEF

A549 = experiment: Cytotoxicity against human A549 cells after 48 hrs by WST8 assay; assay type: functional; conditions: A549, 48 h
[4] = molecular target: T1, DNA topoisomerase 1 (Homo sapiens); experiment: Inhibition of human DNA topoisomerase 1 assessed as intercalate into DNA at 312 uM
[5] = molecular target: T1, DNA topoisomerase 1 (Homo sapiens); experiment: Inhibition of human DNA topoisomerase 1-mediated relaxation of supercoiled DNA at 450 uM
PC-3 = experiment: Cytotoxicity against human PC3 cells after 48 hrs by WST8 assay; assay type: functional; conditions: PC-3, 48 h
DNA topoisomerase 1 [6] = molecular target: T2, DNA topoisomerase 1 (Homo sapiens, UniProt P11387); experiment: Inhibition of human DNA topoisomerase 1 at free enzyme state
T2 sequence (P11387 whole entry): T1 sequence (whole entry)

HL-60 = experiment: Cytotoxicity against human HL60 cells after 48 hrs by WST8 assay; assay type: functional; conditions: HL-60, 48 h
DNA topoisomerase 1 [7] = molecular target: T2, DNA topoisomerase 1; experiment: Inhibition of human DNA topoisomerase 1-mediated relaxation of supercoiled DNA by gel electrophoresis
[8] = molecular target: T1, DNA topoisomerase 1 (Homo sapiens); experiment: Inhibition of human DNA topoisomerase 1 assessed as stabilize DNA-enzyme covalent complex
[9] = molecular target: T1, DNA topoisomerase 1 (Homo sapiens); experiment: Inhibition of human DNA topoisomerase 1 assessed as prevention of DNA-enzyme complex formation
[10] = molecular target: T1, DNA topoisomerase 1 (Homo sapiens); experiment: Inhibition of human DNA topoisomerase 1-mediated relaxation of supercoiled DNA at 312 uM
DNA topoisomerase 1 [11] = molecular target: T3, DNA topoisomerase 1 (Rattus norvegicus, UniProt Q9WUL0); experiment: Inhibition of rat liver DNA topoisomerase 1 treated simultaneously with DNA
T3 sequence (Q9WUL0 whole entry): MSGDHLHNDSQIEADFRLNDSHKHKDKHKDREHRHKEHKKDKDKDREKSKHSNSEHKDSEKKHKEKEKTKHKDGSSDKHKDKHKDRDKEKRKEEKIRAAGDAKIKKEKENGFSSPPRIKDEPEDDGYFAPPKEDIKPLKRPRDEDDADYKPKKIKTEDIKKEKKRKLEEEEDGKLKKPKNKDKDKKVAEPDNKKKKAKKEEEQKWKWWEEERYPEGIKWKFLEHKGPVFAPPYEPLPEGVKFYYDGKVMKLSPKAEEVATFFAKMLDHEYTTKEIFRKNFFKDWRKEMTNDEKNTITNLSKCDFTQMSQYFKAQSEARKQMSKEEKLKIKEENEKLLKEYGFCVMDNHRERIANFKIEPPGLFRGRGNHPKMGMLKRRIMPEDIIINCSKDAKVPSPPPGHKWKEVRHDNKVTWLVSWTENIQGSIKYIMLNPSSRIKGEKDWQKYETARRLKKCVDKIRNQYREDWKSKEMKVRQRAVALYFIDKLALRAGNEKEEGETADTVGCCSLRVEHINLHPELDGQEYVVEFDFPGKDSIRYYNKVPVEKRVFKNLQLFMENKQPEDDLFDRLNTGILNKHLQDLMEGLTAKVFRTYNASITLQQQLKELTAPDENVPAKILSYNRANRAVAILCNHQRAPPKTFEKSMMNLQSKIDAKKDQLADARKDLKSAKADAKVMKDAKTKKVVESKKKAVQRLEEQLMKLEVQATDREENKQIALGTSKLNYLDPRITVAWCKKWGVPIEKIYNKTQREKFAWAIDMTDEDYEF

DNA topoisomerase 1 [12] = molecular target: T3, DNA topoisomerase 1; experiment: Inhibition of rat liver DNA topoisomerase 1 preincubated before addition of DNA
[13] = Inhibition of Leishmania donovani DNA topoisomerase 1 preincubated before addition of DNA
[14] = Inhibition of Leishmania donovani DNA topoisomerase 1 treated simultaneously with DNA

Chain of DNA topoisomerase 2-alpha (P11388 whole entry): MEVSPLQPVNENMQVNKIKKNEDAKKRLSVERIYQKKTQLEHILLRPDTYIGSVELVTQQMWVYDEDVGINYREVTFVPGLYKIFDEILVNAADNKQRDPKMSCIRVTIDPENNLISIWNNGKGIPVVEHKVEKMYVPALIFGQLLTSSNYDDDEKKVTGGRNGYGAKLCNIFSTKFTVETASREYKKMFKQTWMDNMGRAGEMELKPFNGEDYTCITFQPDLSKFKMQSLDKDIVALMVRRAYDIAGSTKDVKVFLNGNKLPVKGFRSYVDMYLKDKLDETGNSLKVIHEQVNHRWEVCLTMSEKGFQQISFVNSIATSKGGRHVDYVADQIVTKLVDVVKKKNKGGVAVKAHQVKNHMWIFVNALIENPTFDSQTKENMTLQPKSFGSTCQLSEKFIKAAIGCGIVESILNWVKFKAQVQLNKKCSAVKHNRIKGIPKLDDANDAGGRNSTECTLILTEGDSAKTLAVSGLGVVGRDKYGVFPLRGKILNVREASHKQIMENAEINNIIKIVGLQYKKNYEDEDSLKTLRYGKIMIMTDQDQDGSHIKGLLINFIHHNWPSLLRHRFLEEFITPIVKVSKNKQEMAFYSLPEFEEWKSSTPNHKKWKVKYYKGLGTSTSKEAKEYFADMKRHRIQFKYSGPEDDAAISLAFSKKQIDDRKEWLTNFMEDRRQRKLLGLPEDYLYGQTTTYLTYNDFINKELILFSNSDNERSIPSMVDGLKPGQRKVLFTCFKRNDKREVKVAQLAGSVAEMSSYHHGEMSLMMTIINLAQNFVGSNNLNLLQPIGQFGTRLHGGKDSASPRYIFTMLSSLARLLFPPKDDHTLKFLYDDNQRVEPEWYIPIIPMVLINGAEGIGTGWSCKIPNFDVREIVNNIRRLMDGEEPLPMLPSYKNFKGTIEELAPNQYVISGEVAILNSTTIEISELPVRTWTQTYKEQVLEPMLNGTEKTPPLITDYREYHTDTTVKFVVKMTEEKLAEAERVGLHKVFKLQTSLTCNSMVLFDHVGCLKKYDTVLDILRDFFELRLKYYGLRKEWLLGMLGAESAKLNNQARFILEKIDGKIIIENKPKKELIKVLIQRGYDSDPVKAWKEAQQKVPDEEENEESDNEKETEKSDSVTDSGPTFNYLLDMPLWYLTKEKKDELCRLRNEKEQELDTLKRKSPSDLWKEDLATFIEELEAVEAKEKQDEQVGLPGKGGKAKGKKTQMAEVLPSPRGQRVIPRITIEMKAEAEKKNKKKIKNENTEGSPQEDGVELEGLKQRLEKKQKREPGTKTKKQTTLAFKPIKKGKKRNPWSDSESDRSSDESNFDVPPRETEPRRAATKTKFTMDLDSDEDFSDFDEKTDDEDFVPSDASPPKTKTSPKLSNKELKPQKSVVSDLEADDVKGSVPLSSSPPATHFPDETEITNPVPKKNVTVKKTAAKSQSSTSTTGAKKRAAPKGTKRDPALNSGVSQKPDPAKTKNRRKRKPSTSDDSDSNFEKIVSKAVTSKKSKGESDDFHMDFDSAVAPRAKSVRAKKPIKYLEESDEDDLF

Compound	GI50 (PANC-1) [µM]	GI50 at 48 h [1] [µM]	IC50 [2] [µM]	inhibition [3]	GI50 (A549) [µM]	Activity [4]	inhibition [5]	GI50 (PC-3) [µM]	IC50 (DNA topoisomerase 1 [6]) [µM]	GI50 (HL-60) [µM]	IC50 (DNA topoisomerase 1 [7]) [µM]	inhibition [8]	inhibition [9]	inhibition [10]	IC50 (DNA topoisomerase 1 [11]) [µM]	IC50 (DNA topoisomerase 1 [12]) [µM]	IC50 [13] [µM]	IC50 [14] [µM]
C/C=C(/C)C(=O)O[C@H]1[C@H](O)[C@]2(CO)[C@H](O)C[C@]3(C)C(=CC[C@@H]4[C@@]5(C)CC[C@H](O[C@@H]6O[C@H](C(=O)O)[C@@H](O)[C@H](O[C@@H]7O[C@@H](CO)[C@H](O)[C@H]7O)[C@H]6O)[C@](C)(CO)[C@@H]5CC[C@]43C)[C@@H]2CC1(C)C [AESCULIOSIDE IID]	10.3	15.4	> 250	Active	12.9	Active	Active	5.51	23.8	7.5	23.8	inactive	Active	inactive	–	–	–	–
O=c1cc(-c2ccc(O)c(O)c2)oc2cc(O)cc(O)c12 [LUTEOLIN]	–	–	–	–	–	–	–	–	–	–	–	–	–	–	5	0.66	2.5	14
